From publication PMC12959773 (Protein & Cell, 2025)
Where a chain is given by its changes, count along the chain named.

Tests used:
[1] = biological target: T1, SLC7A9-SLC3A1 complex (Homo sapiens, UniProt P82251); test: microscale thermophoresis; conditions: read-out: binding affinity
T1 construct: heterodimeric light/heavy chain transporter, dimer of heterodimers; ectopically expressed in HEK293T cells; with Amino acid transporter heavy chain SLC3A1
T1 sequence (P82251 1-487): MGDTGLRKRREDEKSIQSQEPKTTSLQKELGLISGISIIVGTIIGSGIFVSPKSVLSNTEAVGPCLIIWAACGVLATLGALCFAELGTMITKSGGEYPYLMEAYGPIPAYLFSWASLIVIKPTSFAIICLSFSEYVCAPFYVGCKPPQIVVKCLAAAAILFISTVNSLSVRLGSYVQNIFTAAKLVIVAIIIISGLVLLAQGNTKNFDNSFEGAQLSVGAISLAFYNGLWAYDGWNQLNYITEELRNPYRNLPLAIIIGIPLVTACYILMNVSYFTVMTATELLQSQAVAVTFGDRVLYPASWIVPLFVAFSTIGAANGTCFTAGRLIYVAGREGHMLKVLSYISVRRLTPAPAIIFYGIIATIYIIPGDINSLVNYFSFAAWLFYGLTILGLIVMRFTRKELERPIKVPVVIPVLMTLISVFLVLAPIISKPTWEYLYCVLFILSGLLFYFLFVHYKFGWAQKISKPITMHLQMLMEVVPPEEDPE
T1 sequence (Q07837 1-685 partner): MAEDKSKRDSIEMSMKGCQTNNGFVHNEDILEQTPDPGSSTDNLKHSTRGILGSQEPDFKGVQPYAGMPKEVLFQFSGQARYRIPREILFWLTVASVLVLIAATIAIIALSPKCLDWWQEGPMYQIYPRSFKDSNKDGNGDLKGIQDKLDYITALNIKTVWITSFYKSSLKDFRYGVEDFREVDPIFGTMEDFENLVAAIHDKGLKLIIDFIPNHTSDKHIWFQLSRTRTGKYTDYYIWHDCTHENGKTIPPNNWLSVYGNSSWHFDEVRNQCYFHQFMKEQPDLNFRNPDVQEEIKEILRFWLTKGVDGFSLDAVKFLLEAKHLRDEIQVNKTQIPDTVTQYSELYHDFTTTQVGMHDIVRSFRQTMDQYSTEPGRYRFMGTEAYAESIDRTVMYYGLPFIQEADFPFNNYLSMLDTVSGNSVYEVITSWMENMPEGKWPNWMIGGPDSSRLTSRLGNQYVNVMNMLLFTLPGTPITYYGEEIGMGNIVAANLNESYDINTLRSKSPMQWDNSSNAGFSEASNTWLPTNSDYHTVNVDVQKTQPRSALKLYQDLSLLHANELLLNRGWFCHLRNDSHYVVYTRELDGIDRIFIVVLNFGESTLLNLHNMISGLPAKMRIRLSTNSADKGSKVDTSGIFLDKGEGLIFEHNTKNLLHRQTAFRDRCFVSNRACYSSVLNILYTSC

[2] = biological target: T2, SLC7A13-SLC3A1 complex (Homo sapiens, UniProt Q8TCU3, C223A); test: [2H]-cystine uptake, isotope tracking; assay type: cell-based; conditions: HEK293 cells transfected with SLC7A13 and SLC3A1; labelled compound
T2 construct: heterodimeric light/heavy chain transporter, dimer of heterodimers; ectopically expressed in HEK293T / HEK293 cells (Expi293 for cryo-EM); with Amino acid transporter heavy chain SLC3A1
T2 sequence (Q8TCU3 1-470 C223A): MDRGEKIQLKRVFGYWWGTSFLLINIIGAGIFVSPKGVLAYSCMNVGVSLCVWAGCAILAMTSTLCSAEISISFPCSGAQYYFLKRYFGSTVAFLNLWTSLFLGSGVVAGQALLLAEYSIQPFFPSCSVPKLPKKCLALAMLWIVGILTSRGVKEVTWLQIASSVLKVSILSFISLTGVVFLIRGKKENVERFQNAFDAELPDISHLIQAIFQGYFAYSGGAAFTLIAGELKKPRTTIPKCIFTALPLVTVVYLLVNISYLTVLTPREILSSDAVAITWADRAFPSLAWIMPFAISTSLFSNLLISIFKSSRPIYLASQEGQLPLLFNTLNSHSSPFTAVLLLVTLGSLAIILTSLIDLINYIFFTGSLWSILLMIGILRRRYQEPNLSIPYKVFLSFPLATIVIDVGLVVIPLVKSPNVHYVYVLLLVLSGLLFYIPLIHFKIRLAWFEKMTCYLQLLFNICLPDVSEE
T2 sequence (Q07837 1-685 partner): T1 sequence (Q07837 1-685 partner)

[3] = biological target: T3, SLC7A13-SLC3A1 complex (Homo sapiens, UniProt Q8TCU3, F224A); test: [2H]-cystine uptake, isotope tracking; assay type: cell-based; conditions: HEK293 cells transfected with SLC7A13 and SLC3A1; labelled compound
T3 construct: heterodimeric light/heavy chain transporter, dimer of heterodimers; ectopically expressed in HEK293T / HEK293 cells (Expi293 for cryo-EM); with Amino acid transporter heavy chain SLC3A1
T3 sequence (Q8TCU3 1-470 F224A): T2 sequence (Q8TCU3 1-470 C223A) with A223C, F224A
T3 sequence (Q07837 1-685 partner): T1 sequence (Q07837 1-685 partner)

[4] = biological target: T4, SLC7A13-SLC3A1 complex (Homo sapiens, UniProt Q8TCU3, S219A); test: [2H]-cystine uptake, isotope tracking; assay type: cell-based; conditions: HEK293 cells transfected with SLC7A13 and SLC3A1; labelled compound
T4 construct: heterodimeric light/heavy chain transporter, dimer of heterodimers; ectopically expressed in HEK293T / HEK293 cells (Expi293 for cryo-EM); with Amino acid transporter heavy chain SLC3A1
T4 sequence (Q8TCU3 1-470 S219A): T2 sequence (Q8TCU3 1-470 C223A) with S219A, A223C
T4 sequence (Q07837 1-685 partner): T1 sequence (Q07837 1-685 partner)

Kd [1]: 107 ± 33.5 µM
SMILES: N[C@@H](CSSC[C@H](N)C(=O)O)C(=O)O [cystine]
cystine uptake [2]: mutation in any of the seven SLC7A13-specific residues to alanine significantly reduced SLC7A13’s transporter activities | cystine uptake [3]: mutation in any of the seven SLC7A13-specific residues to alanine significantly reduced SLC7A13’s transporter activities | cystine uptake [4]: mutation in any of the seven SLC7A13-specific residues to alanine significantly reduced SLC7A13’s transporter activities
